These are literature values, as cited in patent US5565431A, “Cancer cell inhibitors and method” (priority 1994, dated 1996).

Data set [1] concerns normal colonic mucosa cells. Particulars: Garcia et al. (9).
The test system of data set [2] is seven colon cancer cell lines. The following applies: Garcia et al. (9).

Take `CO[C@H]1[C@@H](OC)C[C@H](C)[C@@H](OC)C2=CC(=O)C=C(NC(=O)/C(C)=C/C=C\[C@H](OC)[C@@H](OC(N)=O)/C(C)=C/[C@@H]1C)C2=O` [herbimycin A]: the “Inhibition of normal colonic mucosa cells” value in data set [1] was 12%. Moreover, in data set [2], the “Inhibition of seven colon cancer cell lines” value is “greater than 40%”.
